# Data published in patent publication US12662465B2, “EGFR inhibitors” (Blueprint Medicines Corporation, priority 2021, dated 2026).
# Where two headings read alike, the source gives them in different places.
# Assays:
# [1] = target: T1, EGFR L858R (Homo sapiens, UniProt P00533, L858R); experiment: Biochemical EGFR inhibition assay (Caliper mobility shift), EGFR L858R; settings: read-out: Enz EGFR_L858R IC50
# T1 construct: purchased SignalChem E10-122BG
# [2] = target: T2, EGFR (d746-750) (Homo sapiens, UniProt P00533, DEL746-750); experiment: Biochemical EGFR inhibition assay (Caliper mobility shift), EGFR (d746-750); settings: read-out: Enz EGFR_Exon19-del746-750 IC50
# T2 construct: purchased SignalChem E10-122JG
# T2 sequence (P00533 with tags, fused parts or gaps DEL746-750 limits assumed): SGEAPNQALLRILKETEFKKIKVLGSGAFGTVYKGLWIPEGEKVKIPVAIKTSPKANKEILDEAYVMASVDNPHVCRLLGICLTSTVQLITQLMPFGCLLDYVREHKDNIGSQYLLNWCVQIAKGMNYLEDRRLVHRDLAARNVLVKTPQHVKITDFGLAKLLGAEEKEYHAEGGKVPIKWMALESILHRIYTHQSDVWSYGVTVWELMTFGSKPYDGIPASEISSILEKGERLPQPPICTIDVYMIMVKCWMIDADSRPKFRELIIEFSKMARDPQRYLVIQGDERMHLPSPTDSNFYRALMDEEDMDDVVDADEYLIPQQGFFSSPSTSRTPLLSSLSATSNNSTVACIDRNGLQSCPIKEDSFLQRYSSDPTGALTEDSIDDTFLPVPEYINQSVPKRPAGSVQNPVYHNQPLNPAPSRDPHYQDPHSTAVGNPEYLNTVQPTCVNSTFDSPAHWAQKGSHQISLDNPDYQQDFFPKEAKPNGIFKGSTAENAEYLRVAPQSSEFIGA
# [3] = target: intracellular phosphorylation of EGFR (Tyr1068) in PC-9 cells (Ex19Del) (Homo sapiens, UniProt P00533, DEL746-750); experiment: PC-9 pEGFR AlphaLISA assay; type: cell-based; settings: 4 hours compound incubation, read-out: Ext pEGFR_PC-9 Ex19Del IC50
# Chain of intracellular phosphorylation of EGFR (Tyr1068) in PC-9 cells (Ex19Del) (P00533 with tags, fused parts or gaps DEL746-750): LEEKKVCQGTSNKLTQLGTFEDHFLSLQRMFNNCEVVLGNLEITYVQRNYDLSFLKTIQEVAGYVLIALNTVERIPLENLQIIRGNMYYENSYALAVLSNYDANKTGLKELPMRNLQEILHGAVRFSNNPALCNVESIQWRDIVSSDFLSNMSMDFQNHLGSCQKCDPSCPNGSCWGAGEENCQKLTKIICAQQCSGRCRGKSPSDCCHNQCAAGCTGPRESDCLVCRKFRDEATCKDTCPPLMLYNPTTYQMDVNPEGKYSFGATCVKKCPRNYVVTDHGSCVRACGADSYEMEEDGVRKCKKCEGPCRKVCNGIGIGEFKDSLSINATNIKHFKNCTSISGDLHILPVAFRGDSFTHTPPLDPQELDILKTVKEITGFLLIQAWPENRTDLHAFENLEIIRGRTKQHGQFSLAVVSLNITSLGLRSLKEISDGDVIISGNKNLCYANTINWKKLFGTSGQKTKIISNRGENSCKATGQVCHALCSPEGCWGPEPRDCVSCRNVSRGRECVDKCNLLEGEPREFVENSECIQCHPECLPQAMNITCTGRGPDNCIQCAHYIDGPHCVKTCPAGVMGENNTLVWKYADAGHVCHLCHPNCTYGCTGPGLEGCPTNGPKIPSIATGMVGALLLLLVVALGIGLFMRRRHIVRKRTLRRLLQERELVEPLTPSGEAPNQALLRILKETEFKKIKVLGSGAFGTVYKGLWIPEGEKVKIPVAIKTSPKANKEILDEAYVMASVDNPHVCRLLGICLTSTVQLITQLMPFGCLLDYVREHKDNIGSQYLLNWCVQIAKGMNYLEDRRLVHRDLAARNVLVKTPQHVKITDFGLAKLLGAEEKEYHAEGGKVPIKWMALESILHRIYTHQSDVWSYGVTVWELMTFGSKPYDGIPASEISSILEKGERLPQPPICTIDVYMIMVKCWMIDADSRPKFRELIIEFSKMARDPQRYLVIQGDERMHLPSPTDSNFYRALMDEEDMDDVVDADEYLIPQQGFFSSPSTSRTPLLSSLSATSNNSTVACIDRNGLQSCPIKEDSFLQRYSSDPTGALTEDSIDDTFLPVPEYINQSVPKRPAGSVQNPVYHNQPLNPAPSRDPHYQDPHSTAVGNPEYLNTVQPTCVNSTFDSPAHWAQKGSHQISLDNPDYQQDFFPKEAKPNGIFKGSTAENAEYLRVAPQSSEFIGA
# [4] = 1.0 mM ATP or ATP Km, room temperature (25° C.)
# T1 sequence (P00533 25-1210 L858R): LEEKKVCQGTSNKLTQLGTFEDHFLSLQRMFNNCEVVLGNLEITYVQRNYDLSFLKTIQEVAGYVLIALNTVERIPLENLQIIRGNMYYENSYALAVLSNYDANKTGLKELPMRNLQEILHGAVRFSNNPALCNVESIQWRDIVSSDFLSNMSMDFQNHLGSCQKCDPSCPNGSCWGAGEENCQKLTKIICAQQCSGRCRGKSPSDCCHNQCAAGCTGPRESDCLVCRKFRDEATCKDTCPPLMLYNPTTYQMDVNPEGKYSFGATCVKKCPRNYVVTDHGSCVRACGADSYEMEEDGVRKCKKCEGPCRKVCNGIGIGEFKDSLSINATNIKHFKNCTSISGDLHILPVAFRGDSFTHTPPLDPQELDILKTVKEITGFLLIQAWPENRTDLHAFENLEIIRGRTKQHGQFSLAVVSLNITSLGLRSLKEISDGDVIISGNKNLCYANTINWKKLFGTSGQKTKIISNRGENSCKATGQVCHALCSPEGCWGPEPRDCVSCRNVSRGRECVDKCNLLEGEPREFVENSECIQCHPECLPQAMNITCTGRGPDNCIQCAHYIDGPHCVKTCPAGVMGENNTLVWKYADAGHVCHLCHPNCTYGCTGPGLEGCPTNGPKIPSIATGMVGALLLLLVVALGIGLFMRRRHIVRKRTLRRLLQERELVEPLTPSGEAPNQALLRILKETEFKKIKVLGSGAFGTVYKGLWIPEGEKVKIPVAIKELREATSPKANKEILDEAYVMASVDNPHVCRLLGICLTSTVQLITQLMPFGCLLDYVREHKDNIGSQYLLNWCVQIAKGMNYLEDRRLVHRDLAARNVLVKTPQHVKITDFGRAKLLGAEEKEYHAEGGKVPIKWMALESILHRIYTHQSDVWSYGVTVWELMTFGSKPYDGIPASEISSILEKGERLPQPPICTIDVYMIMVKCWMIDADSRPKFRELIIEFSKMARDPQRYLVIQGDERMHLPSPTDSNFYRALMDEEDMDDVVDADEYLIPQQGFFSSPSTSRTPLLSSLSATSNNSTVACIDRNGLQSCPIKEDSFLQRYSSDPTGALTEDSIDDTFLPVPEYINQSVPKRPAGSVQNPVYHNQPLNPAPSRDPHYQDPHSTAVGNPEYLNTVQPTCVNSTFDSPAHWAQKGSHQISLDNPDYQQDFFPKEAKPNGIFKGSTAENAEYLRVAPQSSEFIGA
SMILES,IC50 [1] [nM],IC50 [2] [nM],IC50 [3] [nM],"IC50 [1, 4] [nM]","IC50 [2, 4] [nM]"
"C[C@H](CN(C)C)Oc1cc(-c2cnn(C)c2)cc2ncnc(Nc3cc(F)c4ncccc4c3F)c12 [Example 10, (R)—N-(5,8-difluoroquinolin-6-yl)-5-((1-(dimethylamino)propan-2-yl)oxy)-7-(1-methyl-1H-pyrazol-4-yl)quinazolin-4-amine]",< 10,< 10,≤ 10,–,–
"C[C@H](CN(C)C)Oc1cc(-c2cnn(C)c2)cc2ncnc(Nc3ccc4nnccc4c3)c12 [Example 11, (R)—N-(5-((1-(dimethylamino)propan-2-yl)oxy)-7-(1-methyl-1H-pyrazol-4-yl)quinazolin-4-yl)cinnolin-6-amine]",> 50.1,10.1 to 50,> 50.1,–,–
"CN(C)CC1(COc2cc(-c3cnn(C)c3)cc3ncnc(Nc4ccc5ncccc5c4F)c23)COC1 [Example 12, 5-((3-((dimethylamino)methyl)oxetan-3-yl)methoxy)-N-(5-fluoroquinolin-6-yl)-7-(1-methyl-1H-pyrazol-4-yl) quinazolin-4-amine]",10.1 to 50,< 10,> 50.1,–,–
"C[C@H](CN(C)C)Oc1cc(-c2cnn(C)c2)cc2ncnc(Nc3ccc4cccnc4c3)c12 [Example 13, (R)-5-((1-(dimethylamino)propan-2-yl)oxy)-7-(1-methyl-1H-pyrazol-4-yl)-N-(quinolin-7-yl)quinazolin-4-amine]",< 10,< 10,≤ 10,–,–
"C[C@H](CN(C)C)Oc1cc(-c2cnn(C)c2)cc2ncnc(Nc3cnc4ccccc4c3)c12 [Example 14, (R)-5-((1-(dimethylamino)propan-2-yl)oxy)-7-(1-methyl-1H-pyrazol-4-yl)-N-(quinolin-3-yl)quinazolin-4-amine]",< 10,< 10,≤ 10,–,–
"C[C@H](Oc1cc(-c2cnn(C)c2)cc2ncnc(Nc3ccc4ncccc4c3F)c12)C1CCOCC1 [Example 20, (S)—N-(5-fluoroquinolin-6-yl)-7-(1-methyl-1H-pyrazol-4-yl)-5-(1-(tetrahydro-2H-pyran-4-yl)ethoxy)quinazolin-4-amine. or (R)—N-(5-fluoroquinolin-6-yl)-7-(1-methyl-1H-pyrazol-4-yl)-5-(1-(tetrahydro-2H-pyran-4-yl)ethoxy)quinazolin-4-amine]",–,–,≤ 10,< 10,< 10
"CN(C)C1(COc2cc(-c3cnn(C)c3)cc3ncnc(Nc4ccc5ncccc5c4F)c23)COC1 [Example 21, 5-((3-(dimethylamino)oxetan-3-yl)methoxy)-N-(5-fluoroquinolin-6-yl)-7-(1-methyl-1H-pyrazol-4-yl)quinazolin-4-amine]",10.1 to 50,< 10,10.1 to 50,–,–
"CC[C@H](CN(C)C)Oc1cc(-c2cnn(C)c2)cc2ncnc(Nc3ccc4ncccc4c3F)c12 [Example 24, (R)-5-((1-(dimethylamino)butan-2-yl)oxy)-N-(5-fluoroquinolin-6-yl)-7-(1-methyl-1H-pyrazol-4-yl)quinazolin-4-amine]",< 10,< 10,≤ 10,–,–
"CN1CC[C@H](Oc2cc(-c3cnn(C)c3)cc3ncnc(Nc4ccc5ncccc5c4F)c23)C1=O [Example 25, (S)-3-((4-((5-fluoroquinolin-6-yl)amino)-7-(1-methyl-1H-pyrazol-4-yl)quinazolin-5-yl)oxy)-1-methylpyrrolidin-2-one]",< 10,< 10,10.1 to 50,–,–
"COC[C@@H](C)Oc1cc(-c2cnn(C)c2)cc2ncnc(Nc3ccc4ncccc4c3F)c12 [Example 31, (R)—N-(5-fluoroquinolin-6-yl)-5-((1-methoxypropan-2-yl)oxy)-7-(1-methyl-1H-pyrazol-4-yl)quinazolin-4-amine]",< 10,< 10,≤ 10,–,–
"CN(C)CCOc1cc(-c2cnn(C)c2)cc2ncnc(Nc3ccc4ncccc4c3F)c12 [Example 34, 5-(2-(dimethylamino)ethoxy)-N-(5-fluoroquinolin-6-yl)-7-(1-methyl-1H-pyrazol-4-yl)quinazolin-4-amine]",10.1 to 50,< 10,10.1 to 50,–,–
